We go through 2 compounds from US10947260B2, “Phosphinolactone derivatives and pharmaceutical uses thereof” (INSTITUT NATIONAL DE LA SANTE ET DE LA RECHERCHE MEDICALE …, priority 2016, dated 2021).

In test [1] the test system is mice treated with scopolamine. Description: Spontaneous alternation in Y-maze, scopolamine amnesia model. Conditions: IP; scopolamine model. Type of test: in vivo. How it is done:
FIG. 5: Anti-amnesic effect of compound 3b in mice treated with scopolamine: (a, b) spontaneous alternation in Y-maze, and (c, d) passive avoidance. The mice were given compound 3b (0.03-1.5 mg/kg IP) 10 min before scopolamine (0.5 mg/kg SC), 20 min before the Y-maze session or passive avoidance training. Y-maze test: (a) spontaneous alternation and (b) total number of arm entries; retention of passive avoidance: (c) step-through latency and (d) escape latency. ANOVA: F(6.94)=5.32, p<0.0001 at (a); F(6.94)=10.6, p<0.0001 at (b); H=31.4, p<0.0001 at (c); H=24.3, p<0.001 at (d); n=12-19 per group. *p<0.05, **p<0.01, ***p<0.001 compared with group (Sc.Aβ+V); #p<0.05, ##p<0.01, ###p<0.001 compared with group (Aβ25-35+V); Dunnett test at (a, b) and Dunn at (c, d).
FIG. 6: Analysis of the antagonism of anti-amnesic effects of compound 3b in mice treated with scopolamine: (a, c, e) spontaneous alternation in Y-maze, and (b, d, f) step-through latency at recall session of passive avoidance. The mice were treated with methyllycaconitine (MLA, 1 or 3 mg/kg IP), dihydro-ß-erythroidine (DHßE, 1 or 3 mg/kg IP), or NE100 (1 mg/kg IP), simultaneously with compound 3b (0.1 mg/kg IP) 10 min before scopolamine (S, 0.5 mg/kg SC), 20 min before behavioural session. ANOVA: F(5.87)=7.19, p<0.0001 at (a); H=31.3, p<0.0001 at (b); F(5.82)=5.82, p<0.0001 at (c); H=28.8, p<0.0001 at (d); F(4.77)=10.0, p<0.0001 at (e); H=30.5, p<0.0001 at (f); n=12-17 per group. *p<0.05, **p<0.01, ***p<0.001 compared with group (Sc.Aβ+V); #p<0.05, ##p<0.01, ###p<0.001 compared with group (Aβ25-35+V); Dunnett test at (a, b) and Dunn at (c, d).
The animals were tested for spontaneous alternation performance in a Y-maze, an index of spatial working memory. The Y-maze was in grey PVC. Each arm was 40 cm long, 13 cm high, 3 cm wide at the base and 10 cm wide in the upper part, and converging at an equal angle. Each mouse was placed at one end of an arm and was able to move freely through the maze during an 8-min session. The series of arm entries, including any returns in the same arm were visually analysed. Alternation is defined as being consecutive entries in three different arms. The maximum number of alternations is therefore the total number of arm entries less two, and alternation percentage is calculated as (actual alternations/maximum possible alternations)×100. […]
Finally, a first mechanistic analysis of the pharmacological effect in vivo of compound 3b was carried out. With the objective of confirming that the compound, neuroprotective against amyloid toxicity, could also be anti-amnesic in a pharmacological amnesia model, we first determined its effectiveness against the amnesic effects of scopolamine. […]

The test system of the next test is APPSwe mice. Description: Object recognition test, APPSwe mice. Type of test: in vivo. Conditions: 2-month treatment. How it is done: FIG. 9: Spatial learning in pool (a-c) and object recognition (d-f) for APPSwe mice after 2-month treatment with compound 3b. Pool: acquisition profiles of WT mice treated with V and 3b (2 mg/kg) (a) or APPSwe mice (b). (c) Presence in training quadrant (T) and mean in the other quadrants (o) during trial test performed 48 h after the last training session. Friedman non-parametric ANOVA with repeated measures: Fr=21.7, p<0.001 for the group WT/V, Fr=21.8, p<0.001 for the group WT/3b at (a); Fr=13.0, p<0.05 for group APPSwe/V, Fr=12.2, p<0.05 for group APPSwe/3b at (b). […]
The apparatus consisted of four square-shaped arenas (50 cm×50 cm×50 cm in height) made of white plexiglass and placed on a platform equipped with infrared light-emitting diodes (IR). The locomotor activity of the animal and position of the nose were able to be captured by an IR-sensitive camera and analysed using Videotrack and Nosetrack software. […] Each mouse was placed in the open field and exploratory activity and nose position were recorded for 10 min. Activity was analysed in terms of number of contacts with the objects and contact time. […] Each mouse was again placed in the open field and exploratory activity recorded for 10 min. Activity was analysed in similar manner. […]

Regarding `CC1(C)COP(=O)(c2cccc(Cl)c2)C(C)(C)N1` (racemic) [Compound 3b, (±)-2-(3-Chlorophenyl)-2-oxo-3,3,5,5-tetramethyl-[1,4,2]-oxazaphosphinane], the “effective dose (anti-amnesic)” value in test [1] is listed as 0.1 mg/kg.
Turning to `CC1(C)COP(=O)(c2ccc(Cl)cc2)C(C)(C)N1` (racemic) [Compound 3c, (±)-2-(4-Chlorophenyl)-2-oxo-3,3,5,5-tetramethyl-[1,4,2]-oxazaphosphinane], in the test on APPSwe mice (1 mg/kg/d), the “decrease in number of contacts with objects, APPSwe animals” value is listed as “blocked”. In addition, the “deficit of novel object preference (contacts, contact time), APPSwe animals” value in the test on APPSwe mice (session 3) was “significantly blocked or attenuated”.
